# Measurements: US8586617B2, “Aminomethyl-4-imidazoles” (Hoffmann-La Roche Inc., priority 2006, dated 2013)
# Biological target: TAAR1 (Mus musculus (Mouse), UniProt Q923Y8)
# Experiment: TAAR1 radioligand binding assay ([3H]-rac-2-(1,2,3,4-tetrahydro-1-naphthyl)-2-imidazoline, membranes of stably transfected HEK293 cells)
# Settings: read-out: Ki (μM) mouse; mouse TAAR1; radioligand [3H]-rac-2-(1,2,3,4-tetrahydro-1-naphthyl)-2-imidazoline at 60 nM; 4° C., 30 minutes
# Experimental: The ability of the compounds of the present invention to bind to TAAR1 was investigated in accordance with the test given hereinafter.
# For the generation of stably transfected cell lines HEK293 cells were transfected with the pIRESneo2 expression plasmids containing the TAAR coding sequences (described above) with Lipofectamine 2000 (Invitrogen) according to the instructions of the manufacturer, and 24 hours post transfection the culture medium was supplemented with 1 mg/ml G418 (Sigma, Buchs, Switzerland). After a culture period of about 10 days, clones were isolated, expanded and tested for responsiveness to trace amines (all compounds purchased from Sigma) with the cAMP Biotrak Enzyme immunoassay (EIA) System (Amersham) following the non-acetylation EIA procedure provided by the manufacturer.
# Cells at confluence were rinsed with ice-cold phosphate buffered saline without Ca^2+ and Mg^2+ containing 10 mM EDTA and pelleted by centrifugation at 1000 rpm for 5 min at 4° C. The pellet was then washed twice with ice-cold phosphate buffered saline and cell pellet was frozen immediately by immersion in liquid nitrogen and stored until use at −80° C. The cell pellet was then suspended in 20 ml HEPES-NaOH (20 mM), pH 7.4 containing 10 mM EDTA, and homogenized with a Polytron (PT 3000, Kinematica) at 10,000 rpm for 10 seconds. The homogenate was centrifuged at 48,000×g for 30 minutes at 4° C. and the pellet resuspended in 20 ml HEPES-NaOH (20 mM), pH 7.4 containing 0.1 mM EDTA (buffer A), and homogenized with a Polytron at 10,000 rpm for 10 seconds. The homogenate was then centrifuged at 48,000×g for 30 minutes at 4° C. and the pellet resuspended in 20 ml buffer A, and homogenized with a Polytron at 10,000 rpm for 10 seconds. […] The homogenate was then centrifuged at 48,000×g for 10 minutes at 4° C., resuspended in HEPES-NaOH (20 mM), pH 7.0 including MgCl2 (10 mM) and CaCl2 (2 ml) (buffer B) at 200 μg protein per ml and homogenized with a Polytron at 10,000 rpm for 10 seconds.
# Binding assay was performed at 4° C. in a final volume of 1 ml, and with an incubation time of 30 minutes. […] Non-specific binding was defined as the amount of [^3H]-rac-2-(1,2,3,4-tetrahydro-1-naphthyl)-2-imidazoline bound in the presence of the appropriate unlabelled ligand (10 μM). Competing ligands were tested in a wide range of concentrations (10 pM-30 μM). […] Each experiment was performed in duplicate. All incubations were terminated by rapid filtration through UniFilter-96 plates (Packard Instrument Company) and glass filter GF/C, pre-soaked for at least 2 h in polyethylenimine 0.3%, and using a Filtermate 96 Cell Harvester (Packard Instrument Company). The tubes and filters were then washed 3 times with 1 ml aliquots of cold buffer B. Filters were not dried and soaked in Ultima gold (45 D/well, Packard Instrument Company) and bound radioactivity was counted by a TopCount Microplate Scintillation Counter (Packard Instrument Company).
# TAAR1, sequence (Q923Y8 whole entry): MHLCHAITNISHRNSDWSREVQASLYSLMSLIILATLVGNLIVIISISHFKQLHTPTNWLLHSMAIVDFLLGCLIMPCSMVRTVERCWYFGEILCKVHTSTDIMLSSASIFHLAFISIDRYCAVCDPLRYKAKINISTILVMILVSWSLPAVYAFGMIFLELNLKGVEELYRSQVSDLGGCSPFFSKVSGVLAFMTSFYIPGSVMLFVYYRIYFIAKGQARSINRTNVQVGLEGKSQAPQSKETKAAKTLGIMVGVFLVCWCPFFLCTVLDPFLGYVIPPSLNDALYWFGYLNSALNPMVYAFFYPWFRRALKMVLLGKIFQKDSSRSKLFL
row,Structure (SMILES),Ki
1,"CCN(Cc1cnc[nH]1)c1cccc(C)c1 [Example 6, Ethyl-(3H-imidazol-4-ylmethyl)-m-tolyl-amine]",0.0018 µM
2,"CN(Cc1cnc[nH]1)c1ccc(Cl)cc1 [Example 10, (4-Chloro-phenyl)-(3H-imidazol-4-ylmethyl)-methyl-amine]",0.0045 µM
3,"Clc1cccc(N(Cc2cnc[nH]2)Cc2ccccc2Cl)c1 [Example 18, (2-Chloro-benzyl)-(3-chloro-phenyl)-(1H-imidazol-4-ylmethyl)-amine]",0.0039 µM
4,"Clc1cccc(CN(Cc2cnc[nH]2)c2cccc(Cl)c2)c1 [Example 19, (3-Chloro-benzyl)-(3-chloro-phenyl)-(1H-imidazol-4-ylmethyl)-amine]",0.0077 µM
5,"Clc1ccc(CN(Cc2cnc[nH]2)c2cccc(Cl)c2)cc1 [Example 20, (4-Chloro-benzyl)-(3-chloro-phenyl)-(1H-imidazol-4-ylmethyl)-amine]",0.0059 µM
6,"Clc1cccc(N(Cc2ccccc2)Cc2cnc[nH]2)c1 [Example 21, Benzyl-(3-chloro-phenyl)-(1H-imidazol-4-ylmethyl)-amine]",0.0078 µM
7,"CC(C)N(Cc1cnc[nH]1)c1cc(Cl)cc(Cl)c1 [Example 24, (3,5-Dichloro-phenyl)-(3H-imidazol-4-ylmethyl)-isopropyl-amine]",0.001 µM
8,"Cc1cccc(N(Cc2cnc[nH]2)C(C)C)c1 [Example 26, (3H-Imidazol-4-ylmethyl)-isopropyl-m-tolyl-amine]",0.0034 µM
9,"CC(C)N(Cc1cnc[nH]1)c1cccc(C(F)(F)F)c1 [Example 27, (3H-Imidazol-4-ylmethyl)-isopropyl-(3-trifluoromethyl-phenyl)-amine]",0.0023 µM
10,"CC(C)N(Cc1cnc[nH]1)c1ccc(Cl)c(C(F)(F)F)c1 [Example 31, (4-Chloro-3-trifluoromethyl-phenyl)-(3H-imidazol-4-ylmethyl)-isopropyl-amine]",0.0045 µM
11,"CC(C)N(Cc1cnc[nH]1)c1ccc(OC(F)(F)F)c(Cl)c1 [Example 33, (3-Chloro-4-trifluoromethoxy-phenyl)-(3H-imidazol-4-ylmethyl)-isopropyl-amine]",0.0028 µM
12,"Clc1cccc(N(Cc2cnc[nH]2)CC2CC2)c1 [Example 51, (3-Chloro-phenyl)-cyclopropylmethyl-(3H-imidazol-4-ylmethyl)-amine]",0.0009 µM
13,"CC(C1CC1)N(Cc1cnc[nH]1)c1cccc(Cl)c1 (centres unmarked) [Example 52, (3-Chloro-phenyl)-(1-cyclopropylethyl)-(3H-imidazol-4-ylmethyl)-amine]",0.004 µM
14,"CC(C)N(Cc1cnc[nH]1)c1ccc(F)c(Cl)c1 [Example 53, (3-Chloro-4-fluoro-phenyl)-(3H-imidazol-4-ylmethyl)-isopropyl-amine]",0.0015 µM
15,"CCN(Cc1cnc[nH]1)c1ccc(Cl)cc1 [Example 57, (4-Chloro-phenyl)-ethyl-(3H-imidazol-4-ylmethyl)-amine]",0.0014 µM
16,"CCN(Cc1cnc[nH]1)c1ccc(F)c(F)c1 [Example 58, (3,4-Difluoro-phenyl)-ethyl-(3H-imidazol-4-ylmethyl)-amine]",0.0014 µM
17,"CC(C)N(Cc1cnc[nH]1)c1ccc(OC(F)(F)F)cc1 [Example 67, (3H-Imidazol-4-ylmethyl)-isopropyl-(4-trifluoromethoxy-phenyl)-amine]",0.0067 µM
18,"CC(C)N(Cc1cnc[nH]1)c1ccc2ccccc2c1 [Example 70, (3H-Imidazol-4-ylmethyl)-isopropyl-naphthalen-2-yl-amine]",0.0082 µM
19,"CC(C)N(Cc1cnc[nH]1)c1ccc2c(c1)CCC2 [Example 73, (3H-Imidazol-4-ylmethyl)-indan-5-yl-isopropyl-amine]",0.0055 µM

row,Structure (SMILES),Ki
1,"CC(C)N(Cc1cnc[nH]1)c1cc(F)cc(Cl)c1 [Example 76, (3-Chloro-5-fluoro-phenyl)-(3H-imidazol-4-ylmethyl)-isopropyl-amine]",0.0011 µM
2,"CC(C)N(Cc1cnc[nH]1)c1ccc(F)c(F)c1 [Example 77, (3,4-Difluoro-phenyl)-(3H-imidazol-4-ylmethyl)-isopropyl-amine]",0.0053 µM
3,"CC(C)N(Cc1cnc[nH]1)c1cc(Cl)ccc1F [Example 78, (5-Chloro-2-fluoro-phenyl)-(3H-imidazol-4-ylmethyl)-isopropyl-amine]",0.0052 µM
4,"CCN(Cc1cnc[nH]1)c1cccc(Cl)c1F [Example 81, (3-Chloro-2-fluoro-phenyl)-ethyl-(3H-imidazol-4-ylmethyl)-amine]",0.0036 µM
5,"CCN(Cc1cnc[nH]1)c1ccc2ccccc2c1 [Example 82, Ethyl-(3H-imidazol-4-ylmethyl)-naphthalen-2-yl-amine]",0.0012 µM
6,"CC(C)N(Cc1cnc[nH]1)c1cc(F)cc(F)c1 [Example 101, (3,5-Difluoro-phenyl)-(3H-imidazol-4-ylmethyl)-isopropyl-amine]",0.003 µM
7,"COc1c(F)ccc(N(Cc2cnc[nH]2)C(C)C)c1F [Example 102, (2,4-Difluoro-3-methoxy-phenyl)-(3H-imidazol-4-ylmethyl)-isopropyl-amine]",0.006 µM
8,"Cc1cc(N(Cc2cnc[nH]2)C(C)C)ccc1F [Example 109, (4-Fluoro-3-methyl-phenyl)-(3H-imidazol-4-ylmethyl)-isopropyl-amine]",0.0041 µM
9,"CC(C)Oc1cccc(N(Cc2cnc[nH]2)C(C)C)c1 [Example 110, (3H-Imidazol-4-ylmethyl)-(3-isopropoxy-phenyl)-isopropyl-amine]",0.0067 µM
10,"CC(C)N(Cc1cnc[nH]1)c1cccc(OCc2ccccc2)c1 [Example 114, (3-Benzyloxy-phenyl)-(3H-imidazol-4-ylmethyl)-isopropyl-amine]",0.0041 µM
11,"CC(C)N(Cc1cnc[nH]1)c1cccc(OC(F)(F)F)c1 [Example 115, (3H-Imidazol-4-ylmethyl)-isopropyl-(3-trifluoromethoxy-phenyl)-amine]",0.009 µM
12,"CC(C)N(Cc1cnc[nH]1)c1cccc(Oc2ccccc2)c1 [Example 123, (3H-Imidazol-4-ylmethyl)-isopropyl-(3-phenoxy-phenyl)-amine]",0.0021 µM
13,"CC(C)N(Cc1cnc[nH]1)c1cccc(OC(F)(F)C(F)F)c1 [Example 125, (3H-Imidazol-4-ylmethyl)-isopropyl-[3-(1,1,2,2-tetrafluoro-ethoxy)-phenyl]-amine]",0.0044 µM
14,"Cc1ccc(N(Cc2cnc[nH]2)C(C)C)cc1Cl [Example 128, (3-Chloro-4-methyl-phenyl)-(1H-imidazol-4-ylmethyl)-isopropyl-amine]",0.0023 µM
15,"CCN(Cc1cnc[nH]1)c1ccc(C)c(C)c1 [Example 130, (3,4-Dimethyl-phenyl)-ethyl-(1H-imidazol-4-ylmethyl)-amine]",0.0039 µM
16,"CC(C)N(Cc1cnc[nH]1)c1ccc(OCc2ccccc2)c(Cl)c1 [Example 133, (4-Benzyloxy-3-chloro-phenyl)-(1H-imidazol-4-ylmethyl)-isopropyl-amine]",0.0077 µM
17,"CCN(Cc1cnc[nH]1)c1ccc(Oc2ccc(Cl)cc2)c(Cl)c1 [Example 139, [3-Chloro-4-(4-chloro-phenoxy)-phenyl]-ethyl-(1H-imidazol-4-ylmethyl)-amine]",0.0039 µM
18,"CC(C)N(Cc1cnc[nH]1)c1cccc(Cc2ccccc2)c1 [Example 141, (3-Benzyl-phenyl)-(3H-imidazol-4-ylmethyl)-isopropyl-amine]",0.0015 µM
19,"CC(C)N(Cc1cnc[nH]1)c1cccc(-c2ccccc2)c1 [Example 142, Biphenyl-3-yl-(3H-imidazol-4-ylmethyl)-isopropyl-amine]",0.0079 µM
